Test results from patent US20230293614A1, “COMPOSITIONS AND METHODS OF TREATING UPS-ASSOCIATED DISEASES” (Board of Supervisors of Louisiana State University and …, priority 2020, published 2023).

Key:
[1] = MTT cellular viability assay, OPM2; type: cell-based; settings: human, OPM2 cells, read-out: percentage of viable cells
Experimental: The effect of PMI-5011 and bioactive compounds on the viability of cells was tested using a standard colorimetric MTT assay. The MTT Cell Proliferation Assay Kit was purchased from VWR, Radnor, Pa. MM.1S and OPM2 cells were treated with 10 μg/mL of PMI-5011 and 1, 10, and 30 μg/mL of DMC-1, DMC-2, KOE and davidigenin and plated at a density of 10^6 cells/mL in a 96-well plate with each well containing 250 μL of the sample. The plated cells were then incubated at 37° C. for 16 h. 10 μg/mL for PMI-5011 and a 16-h treatment period was used in this study based on previous findings by Yu et al.^24 Parallel plates were prepared for positive and negative solvent vehicle control with the same volume of DMSO and ethanol as for the treated cells. On the day of the experiment, the 96-well plates were centrifuged at 1000×g at 4° C. for 5 min in a microplate compatible centrifuge. The media was discarded and 50 μL of serum-free media and 50 μL of the MTT reagent were added into each well. For a background control, 50 μL of the MTT reagent was added into a well containing media only (no cells). The plate was incubated at 37° C. for 3 h in the dark. After incubation, 150 μL of the MTT solvent was added into each well. The plate was wrapped in a foil and placed on an orbital shaker for 15 min. Finally, the absorbance was measured at λex=544 nm and λem=590 nm using a Wallac 1420 VICTOR2 multilabel HTS counter fluorometry (Perkin Elmer (Waltham, Mass.). The percentage viable cells was obtained by Eq. 1.
% Viable Cells=S-N/C-N×100 (Eq. 1)
Where, S denotes raw absorbance values from samples, N denotes average absorbance value of the background control and C denotes the highest average absorbance value of positive vehicle control. The obtained percentage cytotoxicity values were then statistically analyzed for their significance. Each data point represents triplicate data points from duplicate experiments. The effect of PMI-5011 and the selected bioactive compounds on C2C12 cell viability has previously been reported.^24

[2] = test system: deubiquitinating enzymes (DUBs); assay: DUB activity (Z-LRGG-AMC cleavage) in lysates of treated MM.1S cells; type: cell-based; settings: for Vmax / effect on DUB activity vs DMSO control / Km / n (Hill coefficient): 16 h
Experimental: OPM2 cells were maintained in RPMI 1640 media supplemented with 12% FBS, 21.8 mM glucose, 8.6 mM HEPES (pH 7.4) and 1.0 mM sodium pyruvate. MM.1S cell line were maintained in RPMI 1640 media supplemented with 10% FBS. The cells were all cultured in T175 flasks (VWR, Radnor, Pa.). All media components were from Corning, Atlanta, Ga. unless otherwise noted. To test the effect of the ethanolic extract and bioactive compounds on DUB activity, cells were exposed to a 16-h pretreatment with 10 μg/mL of PMI-5011 and 1, 10, 30 μg/mL concentrations of DMC-1, DMC-2, KOE, and davidigenin before lysing the cells for experimentation. All compounds were reconstituted in DMSO to obtain stock concentrations, which was further diluted in culture media to obtain the desired experimental concentrations. For vehicle control, a subpopulation of cells was treated with pure DMSO diluted in a similar manner for the same duration. Upon treatment, cell lysates (both OPM2 and MM.1S) were generated by harvesting 1×10^6 cells/mL, followed by washing 2× and pelleting in phosphate buffered saline (PBS; 137 mM NaCl, 10 mM Na2HPO4, […], and 1.75 mM KH2PO4 at pH 7.4). The cell pellet was re-suspended in an approximately equivalent volume of M-PER to the volume of the cell pellet (1000-2000 μL) then vortexed for 10 min at room temperature. Following this, the mixture was centrifuged at 14,000×g for 15 min at 4° C. and the supernatant transferred to a centrifuge tube and stored on ice until use. Total protein concentration was determined using a NanoDrop 2000c (Thermo Scientific, Madison, Wis.).
The commercial DUB reporter, Z-LRGG-AMC (substrate) (SEQ ID NO: 1) was reconstituted in DMSO to obtain a final stock concentration of 1.44 mM. This stock reporter was diluted as needed in assay buffer (50 mM HEPES, pH 7.4, 150 mM NaCl, 2 mM DTT, and 0.02% Tween-20) supplemented with 4 mg/mL cell lysates (source of DUBs) to reach the desired reporter concentration with a final volume of 100 μL in a 96-well plate. OPM2 and MM.1S cell lysates from different treatments (10 μg/mL of PMI-5011; 1, 10, and 30 μg/mL of DMC-1, DMC-2, KOE, davidigenin and control vehicle DMSO) and C2C12 cell lysates were used to interrogate the effect of the ethanolic extract and selected bioactive compounds on DUB activity. Reporter only and lysates only (noise/background) samples were included in the 96-well plate to confirm that the rates observed were due to DUB-mediated hydrolysis initiated by the cell lysates. The 96-well plate was maintained at a temperature of 30° C. in the dark for the duration of the experiment. The fluorescence signals emitted as a result of DUB-mediated cleavage of AMC (λex=355 nm and λem=460 nm) were quantified using a Wallac 1420 VICTOR2 multilabel HTS counter fluorometry (Perkin Elmer (Waltham, Mass.). Readings were collected every 30 min for 6 h. The normalized signals were obtained by comparing the treatment with noise and background fluorescence values which were then statistically analyzed for their significance. Each data point represents triplicate data points from duplicate experiments. A calibration curve was generated for known concentrations of AMC to correlate the fluorescence signal (AU) to concentration (μM). The approximate concentration of free fluorophore was used to calculate reaction rates (μM/min) for each substrate concentration using linear regression analysis.
All data visualization, interpretation and curve-fittings were performed using Origin Pro (OriginLab, Northampton, MA) while statistical analyses of experimental data were carried out using SAS 9.4 (SAS Solutions). The analyses of enzyme-substrate reactions in all cell lysates started with scatter plotting the fluorometry signals (p,M) measured for each substrate concentration against time (min). Fluorescence signals measured for each substrate concentration remained stable during the first 30 min, indicating there was a 30-minute lag period before reaction initiation. […]

COc1ccc(CCC(=O)c2ccc(O)cc2O)cc1 [DMC-2, 1-(2,4-dihydroxyphenyl)-3-(4-methoxyphenyl)propan-1-one]
viability at 16 h, 1 μg/mL ([1]; 1 μg/mL): ~85% | viability at 16 h, 30 μg/mL ([1]; 30 μg/mL): ~70% | Vmax ([2]; 1 μg/mL): 22.70 ± 1.71 µM/min | effect on DUB activity vs DMSO control ([2]; 1 μg/mL): significantly enhanced | Vmax ([2]; 10 μg/mL): 18.13 ± 0.14 µM/min | effect on DUB activity vs DMSO control ([2]; 10 μg/mL): significantly enhanced | Vmax ([2]; 30 μg/mL): 18.12 ± 7.21 µM/min | effect on DUB activity vs DMSO control ([2]; 30 μg/mL): significantly enhanced | effect of increasing concentration on DUB activity (normalized Vmax) ([2]; 1, 10, 30 μg/mL, regression fit): negative linear effect | Km ([2]; Table 2, 1 μg/mL): 44.8 µM | Vmax ([2]; Table 2, 1 μg/mL): 0.0227 µM/min | n (Hill coefficient) ([2]; Table 2, 1 μg/mL): ~1.00 | Km ([2]; Table 2, 10 μg/mL): 39.4 µM | Vmax ([2]; Table 2, 10 μg/mL): 0.0181 µM/min | n (Hill coefficient) ([2]; Table 2, 10 μg/mL): 1.68 | Km ([2]; Table 2, 30 μg/mL): 42.2 µM | Vmax ([2]; Table 2, 30 μg/mL): 0.0181 µM/min | n (Hill coefficient) ([2]; Table 2, 30 μg/mL): 1.06
